Measured values taken from PubChem BioAssay (NCI).
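GI50 is the concentration that inhibits growth by half. TGI: concentration producing complete growth inhibition.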

Legend:
Assay in all cases: growth of human tumour cells (NCI), 384-well format
HS 578T breast = tested on: HS 578T breast
HCT-15 colon = tested on: HCT-15 colon
SR leukemia = tested on: SR leukemia
HL-60(TB) leukemia = tested on: HL-60(TB) leukemia
MALME-3M melanoma = tested on: MALME-3M melanoma
T-47D breast = tested on: T-47D breast
SF-539 CNS = tested on: SF-539 CNS
ACHN renal = tested on: ACHN renal
OVCAR-3 ovarian = tested on: OVCAR-3 ovarian
M14 melanoma = tested on: M14 melanoma
A549 NSCLC = tested on: A549 NSCLC
UACC-62 melanoma = tested on: UACC-62 melanoma
K-562 leukemia = tested on: K-562 leukemia
NCI-H522 lung = tested on: NCI-H522 lung
NCI-H322M lung = tested on: NCI-H322M lung
OVCAR-8 ovarian = tested on: OVCAR-8 ovarian
NCI-H226 lung = tested on: NCI-H226 lung
A498 renal = tested on: A498 renal
IGROV1 ovarian = tested on: IGROV1 ovarian
MDA-MB-468 breast = tested on: MDA-MB-468 breast
MOLT-4 leukemia = tested on: MOLT-4 leukemia
MCF7 breast = tested on: MCF7 breast
UO-31 renal = tested on: UO-31 renal
OVCAR-5 ovarian = tested on: OVCAR-5 ovarian
SF-295 CNS = tested on: SF-295 CNS
OVCAR-4 ovarian = tested on: OVCAR-4 ovarian
SK-MEL-28 melanoma = tested on: SK-MEL-28 melanoma
HOP-62 NSCLC = tested on: HOP-62 NSCLC
SK-MEL-5 melanoma = tested on: SK-MEL-5 melanoma
EKVX NSCLC = tested on: EKVX NSCLC
SK-MEL-2 melanoma = tested on: SK-MEL-2 melanoma
NCI-H460 NSCLC = tested on: NCI-H460 NSCLC
MDA-MB-435 melanoma = tested on: MDA-MB-435 melanoma
TK-10 renal = tested on: TK-10 renal
HOP-92 NSCLC = tested on: HOP-92 NSCLC
PC-3 prostate = tested on: PC-3 prostate
SNB-75 CNS = tested on: SNB-75 CNS
SW-620 colon = tested on: SW-620 colon
SN12C renal = tested on: SN12C renal
SK-OV-3 ovarian = tested on: SK-OV-3 ovarian
HCT-116 colon = tested on: HCT-116 colon
CAKI-1 renal = tested on: CAKI-1 renal
U251 glioblastoma = tested on: U251 glioblastoma
BT-549 breast = tested on: BT-549 breast
SNB-19 CNS = tested on: SNB-19 CNS
MDA-MB-231 breast = tested on: MDA-MB-231 breast
UACC-257 melanoma = tested on: UACC-257 melanoma
786-0 renal = tested on: 786-0 renal
RXF 393 renal = tested on: RXF 393 renal
SF-268 CNS = tested on: SF-268 CNS
HT29 colon = tested on: HT29 colon
NCI-H23 lung = tested on: NCI-H23 lung
KM12 colon = tested on: KM12 colon
COLO 205 colon = tested on: COLO 205 colon
DU-145 prostate = tested on: DU-145 prostate

In the case of `Cc1sc2c(c1C)C(c1ccc(Cl)cc1)=N[C@@H](CC(=O)NCCCN1CCN(C)CC1)c1nnc(C)n1-2`, the GI50 (HS 578T breast) is reported as 38.1 nM, the TGI (HS 578T breast) is reported as 11400 nM and the GI50 (HCT-15 colon) is reported as 13000 nM. For the same compound, the TGI (HCT-15 colon) was over 100000 nM, the GI50 (SR leukemia) was 71.1 nM and the TGI (SR leukemia) was over 100000 nM. The GI50 (HL-60(TB) leukemia) was 12.8 nM, the TGI (HL-60(TB) leukemia) was 27 nM and the GI50 (MALME-3M melanoma) was 330 nM. It also gave a TGI (MALME-3M melanoma) of 26400 nM, a GI50 (T-47D breast) of 529 nM and a TGI (T-47D breast) of 71600 nM. The GI50 (SF-539 CNS) was 312 nM, the TGI (SF-539 CNS) was 26900 nM and the GI50 (ACHN renal) was 10200 nM. The TGI (ACHN renal) was over 100000 nM, the GI50 (OVCAR-3 ovarian) was 148 nM and the TGI (OVCAR-3 ovarian) was over 100000 nM. It also gave a GI50 (M14 melanoma) of 404 nM, a TGI (M14 melanoma) of over 100000 nM and a GI50 (A549 NSCLC) of 854 nM. It also gave a TGI (A549 NSCLC) of over 100000 nM, a GI50 (UACC-62 melanoma) of 53.8 nM and a TGI (UACC-62 melanoma) of over 100000 nM. It also gave a GI50 (K-562 leukemia) of 154 nM, a TGI (K-562 leukemia) of over 100000 nM and a GI50 (NCI-H522 lung) of 31.6 nM. For the same compound, the TGI (NCI-H522 lung) was 352 nM, the GI50 (NCI-H322M lung) was 226 nM and the TGI (NCI-H322M lung) was over 100000 nM. It also gave a GI50 (OVCAR-8 ovarian) of 1210 nM, a TGI (OVCAR-8 ovarian) of over 100000 nM and a GI50 (NCI-H226 lung) of 1520 nM. For the same compound, the TGI (NCI-H226 lung) was over 100000 nM, the GI50 (A498 renal) was 3310 nM and the TGI (A498 renal) was over 100000 nM. It also gave a GI50 (IGROV1 ovarian) of 277 nM, a TGI (IGROV1 ovarian) of over 100000 nM and a GI50 (MDA-MB-468 breast) of 48.4 nM. For the same compound, the TGI (MDA-MB-468 breast) was 729 nM, the GI50 (MOLT-4 leukemia) was 105 nM and the TGI (MOLT-4 leukemia) was 10600 nM. For the same compound, the GI50 (MCF7 breast) was 24.2 nM, the TGI (MCF7 breast) was 4880 nM and the GI50 (UO-31 renal) was 30200 nM. For the same compound, the TGI (UO-31 renal) was over 100000 nM, the GI50 (OVCAR-5 ovarian) was 666 nM and the TGI (OVCAR-5 ovarian) was over 100000 nM. The GI50 (SF-295 CNS) was 7300 nM, the TGI (SF-295 CNS) was over 100000 nM and the GI50 (OVCAR-4 ovarian) was 148 nM. It also gave a TGI (OVCAR-4 ovarian) of 1630 nM, a GI50 (SK-MEL-28 melanoma) of 10100 nM and a TGI (SK-MEL-28 melanoma) of over 100000 nM. For the same compound, the GI50 (HOP-62 NSCLC) was 448 nM, the TGI (HOP-62 NSCLC) was over 100000 nM and the GI50 (SK-MEL-5 melanoma) was 462 nM. The TGI (SK-MEL-5 melanoma) was 37900 nM, the GI50 (EKVX NSCLC) was 31500 nM and the TGI (EKVX NSCLC) was over 100000 nM. It also gave a GI50 (SK-MEL-2 melanoma) of 36.6 nM, a TGI (SK-MEL-2 melanoma) of 24500 nM and a GI50 (NCI-H460 NSCLC) of 453 nM. The TGI (NCI-H460 NSCLC) was over 100000 nM, the GI50 (MDA-MB-435 melanoma) was 1330 nM and the TGI (MDA-MB-435 melanoma) was over 100000 nM. For the same compound, the GI50 (TK-10 renal) was 1190 nM, the TGI (TK-10 renal) was over 100000 nM and the GI50 (HOP-92 NSCLC) was 486 nM. It also gave a TGI (HOP-92 NSCLC) of over 100000 nM, a GI50 (PC-3 prostate) of 583 nM and a TGI (PC-3 prostate) of over 100000 nM. For the same compound, the GI50 (SNB-75 CNS) was 443 nM, the TGI (SNB-75 CNS) was over 100000 nM and the GI50 (SW-620 colon) was 23300 nM. The TGI (SW-620 colon) was over 100000 nM, the GI50 (SN12C renal) was over 100000 nM and the TGI (SN12C renal) was over 100000 nM. The GI50 (SK-OV-3 ovarian) was 208 nM, the TGI (SK-OV-3 ovarian) was over 100000 nM and the GI50 (HCT-116 colon) was 407 nM. For the same compound, the TGI (HCT-116 colon) was over 100000 nM, the GI50 (CAKI-1 renal) was 677 nM and the TGI (CAKI-1 renal) was over 100000 nM. The GI50 (U251 glioblastoma) was 2490 nM, the TGI (U251 glioblastoma) was over 100000 nM and the GI50 (BT-549 breast) was 238 nM. It also gave a TGI (BT-549 breast) of 11400 nM, a GI50 (SNB-19 CNS) of over 100000 nM and a TGI (SNB-19 CNS) of over 100000 nM. It also gave a GI50 (MDA-MB-231 breast) of 67.4 nM, a TGI (MDA-MB-231 breast) of over 100000 nM and a GI50 (UACC-257 melanoma) of 985 nM. The TGI (UACC-257 melanoma) was 21900 nM, the GI50 ([…]-0 renal) was 1790 nM and the TGI (786-0 renal) was over 100000 nM. It also gave a GI50 (RXF 393 renal) of 338 nM, a TGI (RXF 393 renal) of 2900 nM and a GI50 (SF-268 CNS) of 12000 nM. For the same compound, the TGI (SF-268 CNS) was over 100000 nM, the GI50 (HT29 colon) was 143 nM and the TGI (HT29 colon) was over 100000 nM. It also gave a GI50 (NCI-H23 lung) of 308 nM, a TGI (NCI-H23 lung) of 56900 nM and a GI50 (KM12 colon) of 56000 nM. The TGI (KM12 colon) was over 100000 nM, the GI50 (COLO 205 colon) was 257 nM and the TGI (COLO 205 colon) was over 100000 nM. It also gave a GI50 (DU-145 prostate) of 7160 nM and a TGI (DU-145 prostate) of over 100000 nM.
